Test results published in patent publication US6376478B1, “Pharmaceutical compositions and methods for treating anxiety, anxiety disorders and memory impairment using naaladase inhibitors” (Guilford Pharmaceuticals Inc., priority 1999, dated 2002).
Values joined by “and” are separate entries in the source; they are usually repeats but may differ in a detail not shown here. Equal values may be shown once. Marks after values point to notes of the source that are not given here.

Assays:
[1] = molecular target: NAALADase (Homo sapiens, UniProt Q04609); test: In vitro inhibition of NAALADase activity; format: biochemical
Chain of NAALADase (Q04609 whole entry): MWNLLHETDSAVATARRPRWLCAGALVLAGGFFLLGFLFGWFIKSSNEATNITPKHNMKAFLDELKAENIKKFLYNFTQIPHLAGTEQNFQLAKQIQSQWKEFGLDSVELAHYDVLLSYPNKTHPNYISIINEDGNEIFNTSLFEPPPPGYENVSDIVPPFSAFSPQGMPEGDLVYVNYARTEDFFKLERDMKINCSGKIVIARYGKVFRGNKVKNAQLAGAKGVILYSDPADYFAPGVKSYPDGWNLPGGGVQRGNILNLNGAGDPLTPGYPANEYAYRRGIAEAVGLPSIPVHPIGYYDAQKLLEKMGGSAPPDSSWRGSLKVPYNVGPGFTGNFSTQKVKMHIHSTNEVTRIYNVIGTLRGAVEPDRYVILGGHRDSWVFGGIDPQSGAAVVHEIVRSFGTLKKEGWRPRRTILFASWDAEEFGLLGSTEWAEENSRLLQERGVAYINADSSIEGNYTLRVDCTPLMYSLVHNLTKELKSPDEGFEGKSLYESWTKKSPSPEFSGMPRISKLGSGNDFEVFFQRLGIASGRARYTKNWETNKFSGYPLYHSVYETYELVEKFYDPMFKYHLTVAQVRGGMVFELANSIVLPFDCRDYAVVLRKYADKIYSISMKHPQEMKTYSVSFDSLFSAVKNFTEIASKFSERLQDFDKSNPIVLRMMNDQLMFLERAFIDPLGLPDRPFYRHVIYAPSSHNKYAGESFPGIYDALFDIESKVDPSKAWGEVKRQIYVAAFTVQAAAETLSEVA

[2] = Passive avoidance anxiolytic model (shuttlebox, latency to cross); format: in vivo; conditions: for performance compared with flurazepam in passive avoidance: in some experiments
Text: The passive avoidance test consists of an acquisition and a retention trial. On the day prior to dosing, the animal is placed into the shuttlebox and allowed to acclimate. A conditioned stimulus (light) is presented for approximately 100 seconds. When the animal crosses to the dark compartment, a mild (0.5 mA) footshock is presented until the animal returns to the lighted compartment or for approximately 10 seconds. Animals failing to cross during acquisition trial is randomly replaced. The day following acquisition, animals are administered test article, saline or flurazepam 10 minutes prior to being placed in the shuttlebox and tested for retention as described above. Latency to cross (in seconds) is recorded.

[3] = Flurazepam 3 mg/kg IP group, acquisition is on the day prior to dosing
[4] = Flurazepam 5 mg/kg IP group, Table I second study, day prior to dosing
[5] = Flurazepam 5 mg/kg IP, Table I second study
[6] = Table II, Flurazepam 5 mg/kg IP

| Structure (SMILES) | Ki [1] | other results |
| --- | --- | --- |
| O=C(O)CCC(CC(S)c1cccc2ccccc12)C(=O)O (stereo not shown) | 10000 nM | – |
| O=C(O)CCC(CP(=O)(O)Cc1ccccc1)C(=O)O (stereo not shown) | 53 nM | – |
| O=C(O)CCC(CP(=O)(O)c1ccccc1)C(=O)O (stereo not shown) | 36 nM | – |
| CCCCP(=O)(O)CC(CCC(=O)O)C(=O)O (stereo not shown) | 114 nM | – |
| Cc1cccc(P(=O)(O)CC(CCC(=O)O)C(=O)O)c1 (stereo not shown) | 180 nM | – |
| O=C(O)CCC(CP(=O)(O)CCc1ccccc1)C(=O)O (stereo not shown) | 148 nM | – |
| O=C(O)CCC(CP(=O)(O)CCCc1ccccc1)C(=O)O (stereo not shown) | 232 nM | – |
| O=C(O)CCC(CP(=O)(O)c1ccc(F)cc1)C(=O)O (stereo not shown) | 532 nM | – |
| CP(=O)(O)CC(CCC(=O)O)C(=O)O (stereo not shown) | 1100 nM | – |
| Cc1ccc(CP(=O)(O)CC(CCC(=O)O)C(=O)O)cc1 (stereo not shown) | 68 nM | – |
| O=C(O)CCC(CP(=O)(O)Cc1ccc(F)cc1)C(=O)O (stereo not shown) | 70 nM | – |
| O=C(O)CCC(CP(=O)(O)Cc1ccccc1F)C(=O)O (stereo not shown) | 145 nM | – |
| Cc1ccc(P(=O)(O)CC(CCC(=O)O)C(=O)O)cc1 (stereo not shown) | 204 nM | – |
| O=C(O)C(CCc1ccccc1)CP(=O)(O)O (stereo not shown) | 199 nM | – |
| O=C(O)CCCC(CP(=O)(O)O)C(=O)O (stereo not shown) | 185 nM | – |
| O=C(O)CCC(CP(=O)(O)Cc1ccc(OCc2ccccc2)cc1)C(=O)O (stereo not shown) | 177 nM | – |
| O=C(O)CCC(CP(=O)(O)Cc1cccc(C(F)(F)F)c1)C(=O)O (stereo not shown) | 22 nM | – |
| O=C(O)CCC(CP(=O)(O)Cc1ccccc1C(F)(F)F)C(=O)O (stereo not shown) | 92 nM | – |
| O=C(O)CCC(CP(=O)(O)Cc1ccc(O)cc1)C(=O)O (stereo not shown) | 117 nM | – |
| CC(CP(=O)(O)O)C(=O)O (stereo not shown) | 2 nM | – |
| O=C(O)C(Cc1ccccc1)CP(=O)(O)O (stereo not shown) | 548 nM | – |
| O=C(O)CCP(=O)(O)O | 234 nM | – |
| COC(=O)c1ccc(CP(=O)(O)CC(CCC(=O)O)C(=O)O)cc1 (stereo not shown) | 740 nM | – |
| CC(C)(C)OC(=O)CCC(CP(=O)(CC(CCC(=O)O)C(=O)O)OC(C)(C)C)C(=O)OC(C)(C)C (stereo not shown) | 4250 nM | – |
| O=C(O)CCC(CP(=O)(O)CC(CCC(=O)OCc1ccccc1)C(=O)OCc1ccccc1)C(=O)O (stereo not shown) | 13 nM | – |
| O=C(O)CCC(CP(=O)(O)CC(CCC(=O)O)C(=O)O)C(=O)O (stereo not shown) | 0.6 nM | – |
| CC(CP(=O)(O)CC(CCC(=O)O)C(=O)O)C(=O)OCc1ccccc1 (stereo not shown) | 95 nM | – |

| Structure (SMILES) | Ki [1] | other results |
| --- | --- | --- |
| CC(CP(=O)(O)CC(CCC(=O)O)C(=O)O)C(=O)O (stereo not shown) | 2 nM | – |
| O=C(O)CCC(CP(=O)(O)C(NCc1ccccc1)c1ccccc1)C(=O)O (stereo not shown) | 313 nM | – |
| O=C(O)CCC(CP(=O)(O)C(NC(=O)O)c1ccccc1)C(=O)O (stereo not shown) | 2000 nM | – |
| O=C(O)CCC(CP(=O)(O)CNCc1ccccc1)C(=O)O (stereo not shown) | 52 nM | – |
| CC(=O)NCP(=O)(O)CC(CCC(=O)O)C(=O)O (stereo not shown) | 118 nM | – |
| O=C(O)CCC(CP(=O)(O)CN(Cc1ccccc1)Cc1ccccc1)C(=O)O (stereo not shown) | 175 nM | – |
| O=C(O)CCC(CP(=O)(O)CN1C(=O)c2ccccc2C1=O)C(=O)O (stereo not shown) | 34 nM | – |
| O=C(O)CCC(CP(=O)(O)CNC(=O)c1ccccc1)C(=O)O (stereo not shown) | 142 nM | – |
| O=C(O)CCC(CP(=O)(O)CNS(=O)(=O)c1ccccc1)C(=O)O (stereo not shown) | 90 nM | – |
| O=C(O)CCC(CP(=O)(O)CNc1ccc(F)cc1)C(=O)O (stereo not shown) | 9 nM | – |
| COc1ccc(NCP(=O)(O)CC(CCC(=O)O)C(=O)O)cc1 (stereo not shown) | 2 nM | – |
| Cc1ccc(NCP(=O)(O)CC(CCC(=O)O)C(=O)O)cc1 (stereo not shown) | 5 nM | – |
| CC(C)(C)c1ccc(NCP(=O)(O)CC(CCC(=O)O)C(=O)O)cc1 (stereo not shown) | 2 nM | – |
| O=C(O)CCC(CP(=O)(O)CNC(=S)Nc1ccccc1)C(=O)O (stereo not shown) | 75 nM | – |
| CC(CS)CC(CCC(=O)O)C(=O)O (mixture of isomers) [2-(3-sulfanyl-2-methylpropyl)pentanedioic acid] | 239 nM | – |
| CCC(CS)C(CCC(=O)O)C(=O)O (stereo not shown) [2-(1-ethyl-2-sulfanylethyl)pentanedioic acid] | 1550 nM | – |
| CC(CS)C(CCC(=O)O)C(=O)O (stereo not shown) [2-(1-methyl-2-sulfanylethyl)penanedioic acid] | 843 nM | – |
| CCCCC(S)CC(CCC(=O)O)C(=O)O (stereo not shown) [2-(2-sulfanylhexyl)pentanedioic acid] | 4750 nM | – |
| O=C(O)CCC(CCCS)C(=O)O (stereo not shown) [2-(3-sulfanylpropyl)pentanedioic acid] | – | anxiolytic properties in passive avoidance ([2]; Example 15, written in present tense): exhibit anxiolytic properties |
| O=C(O)CC(CP(=O)(O)O)C(=O)O (stereo not shown) [2-(phosphonomethyl) succinic acid] | 700 nM | – |
| O=C(O)CCC(CCSSCCC(CCC(=O)O)C(=O)O)C(=O)O (stereo not shown) [2-[2-[(3,5-dicarboxypentyl)dithio]ethyl]pentanedioic acid] | 16500 nM | – |
| O=C(O)CCC(CP(=O)(O)CCC(=O)O)C(=O)O (stereo not shown) [2-[[(2-carboxyethyl)hydroxyphosphinyl]methyl]pentanedioic acid] | 2 nM | – |
| O=C(O)CCC(CP(=O)(O)Cc1c(F)c(F)c(F)c(F)c1F)C(=O)O (stereo not shown) [Compound 2, 2-[[(2,3,4,5,6-pentafluorobenzyl)hydroxyphosphinyl]methyl]pentanedioic acid] | – | Latency to Cross, Acquisition Trial, MEAN ([2]; Compound 2 100 mg/kg IP group, first study (animals 31-45), day prior to dosing): 6.7 s; Latency to Cross, Acquisition Trial, individual animals ([2]; Compound 2 100 mg/kg IP group, first study (animals 31-45), day prior to dosing, 100 mg/kg): 4.0 seconds and 0.1 seconds (2×) and 14.9 seconds and 5.0 seconds and 6.4 seconds and 9.5 seconds and 4.6 seconds and 5.7 seconds and 13.0 seconds and 5.1 seconds and 6.2 seconds and 10.1 seconds and 4.3 seconds and 11.4 seconds; Latency to Cross, Acquisition Trial, MEAN ([2]; Compound 2 100 mg/kg IP group, second study (animals 103-414), day prior to dosing): 7.5 s; Latency to Cross, Acquisition Trial, individual animals ([2]; Compound 2 100 mg/kg IP group, second study (animals 103-414), day prior to dosing, 100 mg/kg): 0.0 s and 11.4 s and 12.1 s and 1.5 s and 1.6 s and 7.0 s and 6.8 s and 20.0 s and 2.3 s and 0.6 s and 9.6 s and 3.2 s and 10.4 s and 5.7 s and 18.7 s; Latency to Cross, Retention Trial, MEAN ([2]; Compound 2 100 mg/kg IP, first study (animals 31-45), significance difference compared to Group 1, p ≦ 0.05): 66.8^a seconds; Latency to Cross, Retention Trial, individual animals ([2]; Compound 2 100 mg/kg IP, first study (animals 31-45), stimulus about 100 seconds, 100 mg/kg): 9.8 seconds and 7.1 seconds and 4.8 seconds and 100.0 seconds (8×) and 88.4 seconds and 7.8 seconds and 15.8 seconds and 68.4 seconds; Latency to Cross, Retention Trial, MEAN ([2]; Compound 2 100 mg/kg IP, second study (animals 103-414), animal 406 omitted): 29.6 s; Latency to Cross, Retention Trial, individual animals ([2]; Compound 2 100 mg/kg IP, second study (animals 103-414), animal 406 omitted from statistical analysis, 100 mg/kg): 3.1 seconds and 33.9 seconds and 100.0 seconds (2×) and 13.2 seconds and 6.6 seconds and 39.4 seconds and 7.9 seconds and 33.2 seconds and 8.4 seconds and 41.5 seconds and 19.5 seconds and 7.3 seconds and 100.0^b seconds and 0.3 seconds; anxiolytic properties in passive avoidance ([2]; Example 14): exhibit anxiolytic properties; performance compared with flurazepam in passive avoidance ([2]; Example 14): performed better than the known anxiolytic agent, flurazepam |
| O=C(O)CCC(CP(=O)(O)O)C(=O)O (stereo not shown) [Compound 3, 2-(phosphonomethyl)pentanedioic acid] | – | Latency to Cross, Retention Trial, MEAN ([2]; Compound 3 100 mg/kg IP): 43.0 s; Latency to Cross, Acquisition Trial, MEAN ([2]; Compound 3 100 mg/kg IP group, day prior to dosing): 7.8 s; Latency to Cross, Acquisition Trial, individual animals ([2]; Compound 3 100 mg/kg IP group, day prior to dosing, 100 mg/kg): 11.8 s and 11.5 s and 9.2 s and 0.8 s and 0.6 s and 2.9 s and 18.6 s and 9.3 s and 0.2 s and 2.0 s and 5.9 s and 6.1 s and 25.0 s and 2.2 s and 10.5 s; Latency to Cross, Retention Trial, individual animals ([2]; Compound 3 100 mg/kg IP, stimulus about 100 seconds, 100 mg/kg): 100.0 seconds (4×) and 4.6 seconds and 9.9 seconds and 47.4 seconds and 12.9 seconds and 20.6 seconds and 6.6 seconds and 33.0 seconds and 89.8 seconds and 5.2 seconds and 5.9 seconds and 8.5 seconds; anxiolytic properties in passive avoidance ([2]; Example 14): exhibit anxiolytic properties; performance compared with flurazepam in passive avoidance ([2]; Example 14): performed better than the known anxiolytic agent, flurazepam |
| CCN(CC)CCN1C(=O)CN=C(c2ccccc2F)c2cc(Cl)ccc21 [Flurazepam, flurazepam, reference compound] | – | Latency to Cross, Acquisition Trial, MEAN [2, 3]: 10.1 s; Latency to Cross, Acquisition Trial, individual animals [2, 3]: 7.0 s and 9.5 s and 8.8 s and 2.8 s and 19.3 s and 5.4 s and 8.2 s and 28.2 s and 7.1 s and 2.4 s and 16.7 s and 8.4 s and 11.3 s and 6.9 s and 9.1 s; Latency to Cross, Retention Trial, MEAN ([2]; Flurazepam 3 mg/kg IP, 10 minutes before test): 47.5 s; Latency to Cross, Retention Trial, individual animals ([2]; Flurazepam 3 mg/kg IP, 10 minutes before test, stimulus about 100 seconds): 83.3 seconds and 100.0 seconds (4×) and 5.5 seconds and 4.7 seconds and 16.1 seconds and 65.3 seconds and 6.9 seconds and 2.1 seconds and 34.1 seconds and 2.2 seconds and 47.5 seconds and 34.9 seconds; Latency to Cross, Acquisition Trial, MEAN [2, 4]: 8.4 s; Latency to Cross, Acquisition Trial, individual animals [2, 4]: 6.6 s and 39.8 s and 2.7 s and 10.6 s and 0.5 s and 0.1 s and 7.4 s and 4.0 s and 4.9 s and 14.7 s and 10.1 s and 9.5 s and 1.9 s and 12.9 s and 0.7 s; Latency to Cross, Retention Trial, MEAN [2, 5]: 20.8 s; Latency to Cross, Retention Trial, individual animals [2, 5]: 11.2 s and 56.3 s and 10.5 s and 23.9 s and 6.5 s and 6.0 s and 13.4 s and 0.8 s and 21.4 s and 2.9 s and 67.2 s and 19.0 s and 58.3 s and 4.8 s and 9.7 s; Latency to Cross, Mean [2, 6]: 12.9 s; Latency to Cross, individual animals [2, 6]: 4.7 seconds and 9.6 seconds and 4.1 seconds (2×) and 26.0 seconds and 0.3 seconds (2×) and 4.0 seconds (2×) and 8.0 seconds and 3.5 seconds and 12.0 seconds and 16.9 seconds and 89.0 seconds and 6.4 seconds |
| O=C(O)CCC(CP(=O)(O)Cc1c(F)c(F)c(F)c(F)c1F)C(=O)O (stereo not shown) [drawing 45] | 23 nM | – |
